The source of these data is patent US11339119B2, “Crystal form and amorphous form of dezocine analogue hydrochloride” (Shandong Danhong Pharmaceutical Co., Ltd., priority 2017, dated 2022).

Data set [1] is described as follows: Solid stability test of crystal form (XRPD). The class given is physicochemical. How it is done: According to the Guiding Principles for Stability Experiment of Crude Drugs and Preparations (General Rules 9001 of Chinese Pharmacopoeia (2015 Version) Volume IV), a stability of a compound placed under conditions of high temperature (60° C., open), high humidity (RT/92.5% RH, open) and illumination (50001×, closed) for 5 days and 10 days were investigated.
An appropriate amount of a crystal form sample of a compound represented by formula (I) was placed at a bottom of a glass sample bottle and spread into a thin layer. The sample placed under the conditions of high temperature and high humidity was sealed with aluminum-foil paper, and small holes were punched in the aluminum-foil paper to ensure that the sample could be fully contacted with ambient air. The sample placed under the condition of illumination (50001×) was sealed with a bottle cap and further sealed with a sealing film, the sample was sealed and placed at a room temperature, and XRPD detection was performed on the 5th day and the 10th day.

Data set [2] can be described thus: Pharmacokinetic study, intramuscular injection in mouse. The class given is in vivo, SD mouse. The conditions noted are these: sesame oil suspension. As to the method:
Through the experiment of drug metabolism in a mouse, the metabolism of the compound in the mouse is evaluated by taking Cmax, t1/2, AUC, MRT and B/P ratio in vivo as indexes.
A test compound was mixed with an appropriate amount of sesame oil, and the mixture was vortexed and ultrasonically processed to obtain an even suspension of 25 μmol/mL. A SD mouse aged 6 weeks to 9 weeks (Shanghai SLAC Laboratory Animal Co., Ltd) was selected and intramuscularly injected with a suspension of the test compound at a dose of 20 μmol/kg or 40 μmol/kg. Whole blood of a certain period of time was collected, and a precipitant (acetonitrile, methanol and internal standard for analysis) was added and centrifuged. A supernatant solution was analyzed for a drug concentration by a LC-MS/MS method (if the test drug was the prodrug, concentrations of the prodrug and the hydrolyzed parent drug were analyzed simultaneously), and pharmacokinetic parameters were calculated by Phoenix WinNonlin software (Pharsight Company of the United States).

Data set [3] in a line: Hygroscopicity test of amorphous form sample. The conditions noted are these: 25° C., 24 h. The class given is physicochemical. How it is done:
A hygroscopicity of an amorphous form sample was detected. (The hygroscopicity of the compound was determined according to the method in the General Rules of the Chinese Pharmacopoeia (2015 Version) Volume IV).
Three dry glass weighing bottles with stoppers were weighed, the results of which were recorded as m1 1, m1 2 and m1 3. An appropriate amount of crude drug sample was spread in the weighed weighing bottles (the sample has a thickness of about 1 mm), then accurately weighed and recorded as m2 1, m2 2 and m2 3. The weighing bottles were open and placed together with bottle caps in a dryer with saturated ammonium chloride solution at a lower part, the dryer was covered, then the dryer was placed in a thermostat at 25° C. for 24 h. After being placed for 24 h, the weighing bottles were covered, then taken out for accurate weighing, the results of which were recorded as m3 1, m3 2 and m3 3. Weight increase by hygroscopicity was calculated, and the calculation formula was as follows: weight increase percentage=100%×(m3−m2)/(m2−m1).

A short description of data set [4]: Equilibrium solubility of amorphous form sample in different pH media. Type of data set: physicochemical. To be noted: for solubility at 24 h: thermodynamic from solid. How it is done: An equilibrium solubility of an amorphous form sample in pH 1.0/2.0 (hydrochloric acid solution), pH 3.8/4.5/5.5 (acetate buffer solution), pH 6.0/6.8/7.4 (phosphate buffer solution) and water was detected (prepared according to the Technical Guiding Principles for Dissolution Rate Test of Ordinary Oral Solid Preparations of Chinese Pharmacopoeia).
5 mL of different media (pH 1.0, pH 2.0, pH 3.8, pH 4.5, pH 5.5, pH 6.0, pH 6.8 and pH 7.4 buffer solutions and pure water) were respectively added into nine 8 mL glass bottles, and an appropriate amount of amorphous form sample was added respectively to make the mixture a suspension. Magnetic stirring bars were added into the sample above, which are placed on a magnetic stirrer to stir (at a temperature of 37° C.).
The sample was centrifuged after 24 h, and a supernatant was taken from an upper sample to determine a concentration thereof by HPLC and a pH value thereof (results shown in Table 4).

The nature of data set [5]: Solid stability test of amorphous form (HPLC content and total impurity). The class given is physicochemical. How it is done: 1.5 High Performance Liquid Chromatograph (HPLC) • Instrument model: Agilent 1200 high performance liquid chromatograph • The analysis method is as follows:
Stability of amorphous form sample under conditions of high temperature, high humidity (40° C./RH 75.0%, closed) and acceleration.
About 1.4 g of sample was put into a double-layer LDPE bag, each layer of LDPE bag was fastened and sealed respectively, then the LDPE bag and a medicinal desiccant were put into an aluminum-foil bag and sealed by heating, under conditions of high temperature and high humidity, a sample was taken on the 30th day for detection, and a detection result was compared with an initial detection result on the 0th day.

Where [6] appears, read: High temperature and high humidity (40° C./RH 75.0%, close), 30 days.

Converted amounts (≈) assume the structure as drawn. “And” between values parts separate entries of the source, which are not always exact repeats. Equal values may be shown once. “Also recorded” adds a separate entry of the source.

For the compound `C[C@@]12CCCCC[C@@H](Cc3c(F)cc(OC(=O)CCCCCCCCC(=O)Oc4cc(F)c5c(c4)[C@@]4(C)CCCCC[C@@H](C5)[C@@H]4N)cc31)[C@@H]2N` [listing 1 of 2 here], the “Crystal form (MOD)” value is given as “Crystal form of compound represented” in data set [1] (0 day, initial); “Crystal form of compound represented” in data set [1] (High humidity (RT/RH 92.5%, open), 5 days); “Crystal form of compound represented” in data set [1] (High humidity (RT/RH 92.5%, open), 10 days); “Crystal form of compound represented” in data set [1] (High temperature (60° C., open), 5 days); “Crystal form of compound represented” in data set [1] (High temperature (60° C., open), 10 days); “Crystal form of compound represented” in data set [1] (Illumination (5000lx, closed), 5 days). Also, the “Crystal form (MOD)” value in data set [1] (Illumination (5000lx, closed), 10 days) is given as “Crystal form of compound represented”. In data set [1] (high temperature, high humidity and illumination, 5 and 10 days vs 0 day), the “Solid stability of crystal form (conclusion in words)” value is “did not change; also recorded: stable under the conditions of high temperature, high humidity and illumination without any change”.

On to `C[C@@]12CCCCC[C@@H](Cc3c(F)cc(OC(=O)CCCCCCCCC(=O)Oc4cc(F)c5c(c4)[C@@]4(C)CCCCC[C@@H](C5)[C@@H]4N)cc31)[C@@H]2N` [Compound B], for which the “Release and hydrolysis in vivo (in words)” value in data set [2] was “slowly released in vivo after intramuscular injection and quickly hydrolyzed into the parent drug compound A”.

As to `C[C@@]12CCCCC[C@@H](Cc3c(F)cc(OC(=O)CCCCCCCCC(=O)Oc4cc(F)c5c(c4)[C@@]4(C)CCCCC[C@@H](C5)[C@@H]4N)cc31)[C@@H]2N` [listing 2 of 2 here], the “Hygroscopicity (in words)” value in data set [3] is “had hygroscopicity”. Also, the “Weight increase percentage, average value” in data set [3] (average of three samples, over saturated ammonium chloride solution) is given as 5.24%. Besides, the Weight increase percentage in data set [3] (single samples 1-3, over saturated ammonium chloride solution) is 5.790% and 5.215% and 4.714%. Moreover, the solubility at 24 h was 1630 µg/mL (≈ 2.35 mM) in data set [4] (0.01 N HCl, simulated gastric fluid, 0.01 NHCl, final pH 2.01, 37° C., 24 h); 398 µg/mL (≈ 0.574 mM) in data set [4] (0.1 N HCl, simulated gastric fluid, 0.1 NHCl, final pH 1.02, 37° C., 24 h); 15100 µg/mL (≈ 21.8 mM) in data set [4] (aqueous buffer, pH 3.8 buffer solution (acetate), final pH 3.68, 37° C., 24 h); 19600 µg/mL (≈ 28.3 mM) in data set [4] (aqueous buffer, pH 4.5 buffer solution (acetate), final pH 4.48, 37° C., 24 h); 18700 µg/mL (≈ 27 mM) in data set [4] (aqueous buffer, pH 5.5 buffer solution (acetate), final pH 5.25, 37° C., 24 h); 13 µg/mL (≈ 0.0188 mM) in data set [4] (aqueous buffer, pH 6.0 buffer solution (phosphate), final pH 5.89, 37° C., 24 h). Further, the solubility at 24 h in data set [4] (aqueous buffer, pH 6.8 buffer solution (phosphate), final pH 6.75, 37° C., 24 h) worked out at 3 µg/mL (≈ 0.00433 mM); in data set [4] (pure water, Water, final pH 4.28, 37° C., 24 h) it was 13500 µg/mL (≈ 19.5 mM). Also, the “Solubility (in words)” value was “easily soluble” in data set [4] (hydrochloric acid solution, acetate buffer solution and water); “slightly soluble or insoluble” in data set [4] (phosphate buffer solution). In data set [4] (pH 7.4 buffer solution (phosphate), final pH 7.20, 37° C., 24 h, LOQ = 0.0003 mg/mL), the Solubility result is listed as “<LOQ”. The Content in data set [5] (0 day) is 99.3%; in data set [5] (setting [6]) it was 97.8%. The Total impurity is listed as 1.56% in data set [5] (0 day) and 1.96% in data set [5] (setting [6]). Further, the “Solid stability of amorphous form (conclusion in words)” value in data set [5] (high temperature, high humidity and sealing, 30 days) is reported as “relatively stable”.

The term solubility denotes the dissolved amount per volume that the medium holds. Lower therefore signals a poorly soluble substance.
